{"source": "patent US20260071190A1", "about": "“SARS CORONAVIRUS 2 R[…] […] GENES, DERIVED FROM GH CLADE SARS CORONAVIRUS 2 OF KOREAN ISOLATE, AND THE PRODUCTION METHOD THEREFOR” (RpexBio, Inc., priority 2022, published 2026)", "tested_on": "rSARS-COV-2/YS006_Nluc", "assay_type": "cell-based, SARS coronavirus 2", "settings": "compared to healthy human-derived IgG control, FIG. 4D"}
{"substance": "etesevimab: Eli Lilly's recombinant monoclonal antibody for the treatment of SARS coronavirus 2", "values": [{"measurement": "inhibition of viral entry into cells / reporter expression", "value": "inhibit viral entry into cells and reduce reporter expression as its concentration increased"}]}
